The record followed here is PubChem BioAssay (NCI).

Each structure is given as a SMILES string.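 Following 48 hours of exposure in 96-well plates, responses at five concentrations were used to interpolate endpoints linearly. GI50 marks 50% less growth. TGI: total growth inhibition.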

Some test systems named below: DLD-1 colon; DMS 114 small cell lung; SNB-78 CNS; RXF-631 renal; BT-549 breast; P388/ADR leukemia; P388 leukemia; SN12K1 renal.
What all share (test): NCI tumour cell line growth inhibition, 48 h

As for `C1=Nc2ccccc2Cn2nncc21`, in the assay with DLD-1 colon, the TGI is above 100 µM.

For `OC(c1ccccc1)C1CC2C=CC1C2` (stereo unspecified), the TGI with DMS 114 small cell lung, with DLD-1 colon, with SNB-78 CNS and in the assay with RXF-631 renal was above 100 µM each time.

With `O=c1ccc2c(Cl)cccc2o1`, in the assay on BT-549 breast, the TGI was above 100 µM.

With `CCN(CC)CCCC(C)Nc1c2ccc(Cl)cc2nc2cc(Cl)ccc12` (stereo unspecified), the TGI in the assay on DMS 114 small cell lung came to 16.6 µM; in the assay with DLD-1 colon, 9.38 µM; in the assay on P388/ADR leukemia, 3.48 µM; in the assay with P388 leukemia, 3.58 µM; in the assay on SNB-78 CNS, 26.6 µM; in the assay on SN12K1 renal, 8.47 µM.

In the case of `Clc1ccc(C2CC(c3cccc(Nc4ccncc4)c3)=NN2c2ccccc2)cc1` (stereo unspecified), in the assay with BT-549 breast, the GI50 is 1.72 µM and the TGI amounted to 3.38 µM.

Molecule `CSC1=C(SC)C(=O)c2cn(C)c(=O)cc2C1=O` returned a TGI in the assay on BT-549 breast of 3.71 µM.

Consider `Fc1ccc(Nc2ncc(-c3cc(F)c(Cl)cc3Cl)s2)cc1Cl`, for which, in the assay with BT-549 breast, the GI50 was 20.2 µM and the TGI turned out to be 45.1 µM.

With `CC1(CO)C(O)CCC2(C)C1C(O)CC1CC3CC12CCC3(O)CO` (stereo unspecified), the TGI in the assay on DMS 114 small cell lung was above 225 µM; in the assay on DLD-1 colon, above 225 µM; in the assay on P388/ADR leukemia, above 225 µM; in the assay on P388 leukemia it was above 22.5 µM; with SNB-78 CNS, above 225 µM; in the assay on SN12K1 renal it was above 225 µM.

In the case of `COC1=CC(=O)c2c(c(COC(C)=O)cn2C)C1=O`, the TGI in the assay with BT-549 breast was 0.0911 µM.

With `CC(C)NC(=O)OCc1nnn2c1CCC2`, the TGI in the assay on DLD-1 colon and in the assay with SNB-78 CNS was above 100 µM in each case.
